Data set [1] can be described thus: Example 39 - Cell viability (tox.) in HIV-contaminated cell lines, in vitro. Format: cell-based. As to the method: (§1) This study was carried out at the Swedish National Bacterological Laboratory (SBL). Multi-Protein was compared to AZT and Foscarnet. All preparations were tested at dilutions from undiluted to 10^-5 (highest concentration for Multi-Protein was 5 mg/ml). The preparations were added to the cell linjes, HIV-I infected to 40-60%, under identical and standardized conditions.
(§2) Control: 50% infected cells. Cell toxicity and percentage of infected cells measured by immunofluorescence.
(§3) Control: 50% infected cells. Cell toxicity and percentage of infected cells measured by immanofluorescence.

Data set [2] deals with cell linjes, HIV-I infected to 40-60%. The description is as above. Format: cell-based. As to the method: as §1, §2, §3
Data set [3] deals with primary and secondary liver cancer. To be noted: phase II study, Japan; T. Taguchi et al; cited from earlier work.
The subject of another data set is Yoshida Sarcoma. The following applies: cited from earlier work.
Data set [4] concerns mice with P388 murine leukemia. Briefly: Toxicity on mice with s.c. implanted P388 murine leukemia, i.p. daily during 9 consecutive days. Type of data set: in vivo. To be noted: 9 days. As for the experimental part:
It may be worth mentioning that the highest dose of PHIM (20 mg/kg) is far higher than any of the curing doses used in any of the clinical examples which have been reported earlier in this description.

Each structure is given as a SMILES string. Read-outs that look alike come from different tables or passages of the source.

For the compound `Cc1cn([C@H]2C[C@H](N=[N+]=[N-])[C@@H](CO)O2)c(=O)[nH]c1=O` [AZT], the viability – broadly, a per cent measure of how many cells are alive, often set against a control – in data set [1] was 100%. In addition, in data set [2], the “effect on the cells in the cultures” value was “all cells in the cultures were attacked and killed”.

`COc1cccc2c1C(=O)c1c(O)c3c(c(O)c1C2=O)C[C@@](O)(C(=O)CO)C[C@@H]3O[C@H]1C[C@H](N)[C@H](O)[C@H](C)O1` [Adriamycin]: in data set [3], the “response rate (CR and PR)” value is 9.5%.

Consider `N.N.[Cl][Pt][Cl]` [Cisplatin], for which the “tumour cells not killed” value with Yoshida Sarcoma (cells removed from the tumour and cultured) is given as 53%.

`COc1cccc2c1C(=O)c1c(O)c3c(c(O)c1C2=O)C[C@@](O)(C(=O)CO)C[C@@H]3O[C@H]1C[C@H](N)[C@H](O)[C@H](C)O1` [DOX, doxorubicin]: the Toxic death in data set [4] (Dose 1.25 mg/kg i.p. daily) is 0/6; in data set [4] (Dose 2.5 mg/kg i.p. daily), 6/6; in data set [4] (Dose 5 mg/kg i.p. daily), 6/6. In data set [4] (Dose 5 mg/kg i.p. daily), the “Body weight change” value was -2.3 g.

As to `O=C(O)P(=O)(O)O` [Foscarnet], in data set [1] (Trial 1, moi 0.4, Multi-Protein: deformed cells, read-out: Cell viability (tox.)), the viability amounted to 100%. Besides, in data set [2] (at low dilutions), the “effect on the cells in the cultures” value was “all cells in the cultures were attacked and killed”.

Turning to `CO[C@@]12[C@H](COC(N)=O)C3=C(C(=O)C(C)=C(N)C3=O)N1C[C@@H]1N[C@@H]12` [Mitomycin C], the side effect profile result in the data set with Yoshida Sarcoma (0.5 mg/kg as well as lower doses) was “loss of body weight, hair loss, decreased leucocytes and chronic diarrhoea”. In addition, in the data set on Yoshida Sarcoma (0.5 mg/kg or even higher doses), the “effect on Yoshida Sarcoma resistant to Mitomycin C” value is on record as “no effects could be detected”. Also, in the data set with Yoshida Sarcoma (non-resistant Yoshida Sarcoma, doses up to 0.5 mg/kg), the “efficacy calculated as 30 days of survival of the rats” value is on record as approximately 100%. Further, the “response rate (CR and PR)” value in data set [3] is on record as 20%.

Values taken from patent EP0642351B1, “NEW PHARMACEUTICAL USES OF KRILL ENZYMES” (PHAIRSON MEDICAL, INC., priority 1992, dated 1993).
